ChEMBL document CHEMBL1201862, “PubChem BioAssay data set” (2004)
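Grown in 96-well plates, cells were treated for 48 hours with each compound at five concentrations. Insufficient inhibition: endpoint recorded as highest concentration tested. GI50: concentration for 50% inhibition of growth.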 Calls of active or inactive are those of the source. Rule as the data show it: active = GI50 up to about 1.1 µM and inactive = higher.

Key:
Test in all cases: inhibition of tumour cell growth, NCI panel, 48 h
[1] = tested on: HCT-15
[2] = tested on: CAKI-1
[3] = tested on: UACC-62
[4] = tested on: SR
[5] = tested on: COLO 205
[6] = tested on: MDA-MB-231
[7] = tested on: MDA-N
[8] = tested on: HOP-18
[9] = tested on: U-251
[10] = tested on: SNB-19
[11] = tested on: SN12C
[12] = tested on: RPMI-8226
[13] = tested on: OVCAR-8
[14] = tested on: XF498
[15] = tested on: OVCAR-3
[16] = tested on: Hs-578T
[17] = tested on: DLD-1
[18] = tested on: SK-OV-3
[19] = tested on: DMS-114
[20] = tested on: K562
[21] = tested on: KM-20L2
[22] = tested on: DMS-273
[23] = tested on: LOX IMVI
[24] = tested on: A549
[25] = tested on: M19-MEL
[26] = tested on: SW-620
[27] = tested on: LXFL 529
[28] = tested on: SNB-78
[29] = tested on: NCI-H522
[30] = tested on: SF-268
[31] = tested on: HL-60
[32] = tested on: HCT-116
[33] = tested on: A498
[34] = tested on: HOP-62
[35] = tested on: MOLT-4
[36] = tested on: UACC-257
[37] = tested on: TK-10
[38] = tested on: SF-295
[39] = tested on: HOP-92
[40] = tested on: M14
[41] = tested on: RXF 631
[42] = tested on: SK-MEL-28
[43] = tested on: OVCAR-5
[44] = tested on: KM12
[45] = tested on: IGROV-1
[46] = tested on: UO-31
[47] = tested on: CCRF-CEM
[48] = tested on: HT-29
[49] = tested on: RXF 393
[50] = tested on: NCI-H460
[51] = tested on: EKVX
[52] = tested on: ACHN
[53] = tested on: NCI-H23
[54] = tested on: SK-MEL-5
[55] = tested on: Malme-3M
[56] = tested on: 786-0
[57] = tested on: SK-MEL-2
[58] = tested on: SNB-75
[59] = tested on: NCI-H226
[60] = tested on: OVCAR-4
[61] = tested on: HCC 2998
[62] = tested on: SF-539

Compound: COc1ccc2c(c1)c[n+](C)c1c3cc(OC)c(OC)cc3ccc21
- GI50 [1]: 24.9 µM
- GI50 [2]: 17.6 µM (inactive)
- GI50 [3]: 11.3 µM (inactive)
- GI50 [4]: 1.38 µM (inactive)
- GI50 [5]: 1.41 µM (inactive)
- GI50 [6]: 1.59 µM (inactive)
- GI50 [7]: 2.5 µM (inactive)
- GI50 [8]: 12.4 µM (inactive)
- GI50 [9]: 1.94 µM (inactive)
- GI50 [10]: 4.78 µM (inactive)
- GI50 [11]: 2.91 µM (inactive)
- GI50 [12]: 1.75 µM (inactive)
- GI50 [13]: 1.73 µM (inactive)
- GI50 [14]: 4.23 µM (inactive)
- GI50 [15]: 4.16 µM (inactive)
- GI50 [16]: 2.23 µM (inactive)
- GI50 [17]: 4.86 µM (inactive)
- GI50 [18]: 9.4 µM (inactive)
- GI50 [19]: 1.98 µM (inactive)
- GI50 [20]: 2.04 µM (inactive)
- GI50 [21]: 4.84 µM (inactive)
- GI50 [22]: 1.57 µM (inactive)
- GI50 [23]: 1.95 µM (inactive)
- GI50 [24]: 2.74 µM (inactive)
- GI50 [25]: 6.44 µM (inactive)
- GI50 [26]: 1.55 µM (inactive)
- GI50 [27]: 1.96 µM (inactive)
- GI50 [28]: 6.95 µM (inactive)
- GI50 [29]: 1.67 µM (inactive)
- GI50 [30]: 2.75 µM (inactive)

Compound: NC(CCc1nc(-c2cccc([N+](=O)[O-])c2)cs1)C(=O)O (centres undefined)
- GI50 [31]: > 100 µM (inactive)
- GI50 [32]: > 100 µM (inactive)
- GI50 [3]: > 100 µM (inactive)
- GI50 [33]: > 100 µM (inactive)
- GI50 [34]: > 100 µM (inactive)
- GI50 [4]: > 100 µM (inactive)
- GI50 [35]: > 100 µM (inactive)
- GI50 [36]: > 100 µM (inactive)
- GI50 [37]: > 100 µM (inactive)
- GI50 [9]: > 100 µM (inactive)
- GI50 [10]: > 100 µM (inactive)
- GI50 [13]: > 100 µM (inactive)
- GI50 [38]: > 100 µM (inactive)
- GI50 [39]: > 100 µM (inactive)
- GI50 [40]: > 100 µM (inactive)
- GI50 [41]: > 100 µM (inactive)
- GI50 [18]: > 100 µM (inactive)
- GI50 [19]: > 100 µM (inactive)
- GI50 [42]: > 100 µM (inactive)
- GI50 [43]: > 100 µM (inactive)
- GI50 [44]: > 100 µM (inactive)
- GI50 [45]: > 100 µM (inactive)
- GI50 [46]: > 100 µM (inactive)
- GI50 [21]: > 100 µM (inactive)
- GI50 [47]: > 100 µM (inactive)
- GI50 [22]: > 100 µM (inactive)
- GI50 [24]: > 100 µM (inactive)
- GI50 [48]: > 100 µM (inactive)
- GI50 [25]: > 100 µM (inactive)
- GI50 [49]: > 100 µM (inactive)
- GI50 [50]: > 100 µM (inactive)
- GI50 [51]: > 100 µM (inactive)
- GI50 [28]: > 100 µM (inactive)
- GI50 [52]: > 100 µM (inactive)
- GI50 [29]: > 100 µM (inactive)
- GI50 [53]: > 100 µM (inactive)

Compound: Nc1nc(NC2C=C(CO)C(O)C2O)c([N+](=O)[O-])c(=O)[nH]1 (centres undefined)
- GI50 [54]: > 100 µM (inactive)
- GI50 [1]: > 100 µM
- GI50 [55]: > 100 µM (inactive)
- GI50 [56]: > 100 µM (inactive)
- GI50 [2]: > 100 µM (inactive)
- GI50 [32]: > 100 µM (inactive)
- GI50 [3]: > 100 µM (inactive)
- GI50 [33]: > 100 µM (inactive)
- GI50 [34]: > 100 µM (inactive)
- GI50 [57]: > 100 µM (inactive)
- GI50 [4]: > 100 µM (inactive)
- GI50 [5]: > 100 µM (inactive)
- GI50 [35]: > 100 µM (inactive)
- GI50 [36]: > 100 µM (inactive)
- GI50 [8]: > 100 µM (inactive)
- GI50 [58]: > 100 µM (inactive)
- GI50 [37]: > 100 µM (inactive)
- GI50 [9]: > 100 µM (inactive)
- GI50 [10]: > 100 µM (inactive)
- GI50 [11]: > 100 µM (inactive)
- GI50 [59]: > 100 µM (inactive)
- GI50 [13]: > 100 µM (inactive)
- GI50 [14]: > 100 µM (inactive)
- GI50 [38]: > 100 µM (inactive)
- GI50 [39]: > 100 µM (inactive)
- GI50 [15]: > 100 µM (inactive)
- GI50 [60]: > 100 µM (inactive)
- GI50 [17]: > 100 µM (inactive)
- GI50 [40]: > 100 µM (inactive)
- GI50 [18]: > 100 µM (inactive)
- GI50 [19]: > 100 µM (inactive)
- GI50 [42]: > 100 µM (inactive)
- GI50 [43]: > 100 µM (inactive)
- GI50 [44]: > 100 µM (inactive)
- GI50 [20]: > 100 µM (inactive)
- GI50 [45]: > 100 µM (inactive)
- GI50 [46]: > 100 µM (inactive)
- GI50 [21]: > 100 µM (inactive)
- GI50 [47]: > 100 µM (inactive)
- GI50 [22]: > 100 µM (inactive)
- GI50 [23]: > 100 µM (inactive)
- GI50 [61]: > 100 µM (inactive)
- GI50 [24]: > 100 µM (inactive)
- GI50 [48]: > 100 µM (inactive)
- GI50 [25]: > 100 µM (inactive)
- GI50 [62]: > 100 µM (inactive)
- GI50 [49]: > 100 µM (inactive)
- GI50 [26]: > 100 µM (inactive)
- GI50 [50]: > 100 µM (inactive)
- GI50 [51]: > 100 µM (inactive)
- GI50 [27]: > 100 µM (inactive)
- GI50 [28]: > 100 µM (inactive)
- GI50 [52]: > 100 µM (inactive)
- GI50 [29]: > 100 µM (inactive)
- GI50 [53]: > 100 µM (inactive)
- GI50 [30]: > 100 µM (inactive)

Compound: CC(C)=CCC/C(C)=C/CC/C(C)=C/C(O)c1ccccc1 (centres undefined)
- GI50 [54]: 16.6 µM (inactive)
- GI50 [1]: 18.8 µM
- GI50 [55]: 19.2 µM (inactive)
- GI50 [31]: 22.5 µM (inactive)
- GI50 [2]: > 10 µM (inactive)
- GI50 [32]: 17.9 µM (inactive)
- GI50 [3]: 17 µM (inactive)
- GI50 [33]: 19.5 µM (inactive)
- GI50 [34]: 19.1 µM (inactive)
- GI50 [57]: 19.8 µM (inactive)
- GI50 [4]: 20.7 µM (inactive)
- GI50 [5]: 18.5 µM (inactive)
- GI50 [36]: 18.2 µM (inactive)
- GI50 [37]: 29.1 µM (inactive)
- GI50 [9]: 18.2 µM (inactive)
- GI50 [10]: 20.2 µM (inactive)
- GI50 [11]: 19.1 µM (inactive)
- GI50 [12]: 18.7 µM (inactive)
- GI50 [59]: 30.1 µM (inactive)
- GI50 [13]: 20.6 µM (inactive)
- GI50 [38]: 18.1 µM (inactive)
- GI50 [15]: 20.1 µM (inactive)
- GI50 [60]: > 10 µM (inactive)
- GI50 [17]: 18.5 µM (inactive)
- GI50 [40]: 18.3 µM (inactive)
- GI50 [41]: 18 µM (inactive)
- GI50 [18]: 21.8 µM (inactive)
- GI50 [19]: 18.3 µM (inactive)
- GI50 [43]: 18.3 µM (inactive)
- GI50 [44]: 23.6 µM (inactive)
- GI50 [20]: 61.4 µM (inactive)
- GI50 [45]: 19.8 µM (inactive)
- GI50 [46]: 21 µM (inactive)
- GI50 [21]: 21.3 µM (inactive)
- GI50 [47]: 23.1 µM (inactive)
- GI50 [23]: 19.6 µM (inactive)
- GI50 [48]: 18.4 µM (inactive)
- GI50 [25]: 18.3 µM (inactive)
- GI50 [26]: 20.2 µM (inactive)
- GI50 [50]: 19.5 µM (inactive)
- GI50 [51]: 20.1 µM (inactive)
- GI50 [27]: 17.8 µM (inactive)
- GI50 [28]: 22.6 µM (inactive)
- GI50 [52]: 17.4 µM (inactive)
- GI50 [29]: > 10 µM (inactive)
- GI50 [53]: 22.7 µM (inactive)
- GI50 [30]: 18.9 µM (inactive)
